Test results from patent US4539333A, “Prostacyclin, methods of using and method of making” (Burroughs Wellcome Co., priority 1976, dated 1985).

Columns and labels:
[1] = tested on: human platelet rich plasma (PRP); assay: Aggregation of platelets in fresh human platelet rich plasma, Born aggregometer; type: cell-based
Procedure: Aggregation of platelets in 1 ml. of fresh human platelet rich plasma (PRP) was monitored in a Born aggregometer. An immediate anti-aggregatory effect of the fresh reaction mixture of Example 1 of aortic microsomes with PGH2 or PGG2 was observed. The lowest anti-aggregatory concentration was obtained with samples containing 0.5-5 ng. Prostacyclin/ml.

[2] = tested on: rabbit aorta, rabbit coeliac artery, rat stomach strip and rat colon; assay: Profile of biological activity on isolated tissues
Procedure: 5.xi.-Iodo-9-deoxy-6.xi., 9α-epoxyprostaglandin F1α methyl ester (500 mg) was stirred with methanolic NaOMe prepared from Na (0.23 g., 10 equivs.) and MeOH (3.5 ml.) under N2 at room temperature overnight; 1N aq. NaOH (2.5 ml.) was added to the yellow reaction solution to bring about hydrolysis of the ester moiety and, after 2 hours, the methanol was evaporated in vacuo at room temperature. The residual aqueous solution gave rise spontaneously to a mass of colourless fine needles of the desired sodium salt (formula (I): R=Na) which was cooled (0°), collected, washed sparingly with 1N aq. NaOH, air-dried, and stored in a stoppered tube; this salt (383 mg.) had max (KBr disc) 1692 cm^-1 [drawing 4] and twenty ^13 C resonances only were observed (at 182.7 (C-1), 158.2 (C-6), 140.0 and 134.3 (C-13, 14), 100.7(C-5), 87.5(C-15), 80.6 and 75.5(C-9, 11), 58.0(C-12), 49.0, 45.8, 42.4, 41.9, 37.5, 35.8 (C-18), 31.6., 29.9, 29.3, 26.7(C-19), and 18.4(C-20) ppm from TMS in DMSO-d6). The product, sodium (5Z)- 5,6-didehydro-9-deoxy-6,9α-epoxyprostaglandin F1α (syn. sodium prostacyclin), thus obtained completed inhibited arachidonic acid-induced platelet aggregation (human platelet-rich plasma) at 1 ng./ml. and its profile of biological activity on the rabbit aorta, rabbit coeliac artery, rat stomach strip and rat colon conformed with that of sodium prostacyclin obtained by biosynthesis. […]

[3] = Stability of Prostacyclin and of its anti-aggregatory activity (aqueous medium, storage); type: physicochemical
Procedure: Prostacyclin is unstable at room temperature in aqueous medium, having a half-life of approximately 10 mins., but its anti-aggregatory activity can be preserved for several days by dissolving the substance in aqueous alkali or in dry acetone and storing at -20° C. […] Prostacyclin also interrupts and reverses the presence of platelet aggregation.
The anti-aggregatory activity of the extracted Prostacyclin disappeared on bioling (15 seconds) or on standing at 22° C. for 20 minutes. The anti-aggregatory activity of Prostacyclin could be preserved for several days by dissolving the substance in dry acetone and storing at -20° C.

[4] = tested on: isolated hearts from rabbits; assay: Isolated hearts perfused at constant flow rate by the Langendorf technique; conditions: rabbit hearts
[5] = tested on: gastric lesions induced by indomethacin; assay: Gastric lesions induced in rats by indomethacin; type: in vivo; conditions: doses from 62.5 to 250 μg/kg, subcutaneous injection
[6] = tested on: strips of coronary artery from the ox; assay: Relaxation of spirally cut strips of coronary artery; conditions: dose dependent effect
Procedure: The effect is dose dependent and relaxation can be seen with doses as low as 20 nanograms per 5 ml bath.

blood pressure = assay: Blood pressure and heart rate in normotensive anaesthetised rats; type: in vivo; conditions: injected intravenously and intra-aortically
Procedure: Prostacyclin was injected intravenously and intra-aortically into normotensive anaethetised rats and the blood pressure and heart rate recorded.

[7] = tested on: strips of coeliac and mesenteric arteries; assay: Relaxation of strips of coeliac and mesenteric arteries; design: species or system rabbit
strips of rabbit aorta = assay: Contraction of rabbit aorta strips (cascade superfusion bioassay)
Procedure: Aortic microsomal powder (5 mg) was incubated with 1 μg of prostalgandin endoperoxide (PGG2 or PGH2) in 0.05 M Tris buffer (pH 7.5) (1 ml.) for 2 minutes at 22° C. Enzyme activity was estimated by direct bioassay of the incubation mixture. After incubation of 2 minutes at 22° C. all prostaglandin endoperoxide activity was lost indicated by a lack of contraction of rabbit aorta strips when assayed by the cascade superfusion technique of Vane (Br. J. Pharmacy. 23, 369-373, 1964 indicating 100% conversion of PGG2 or PGH2.

| Compound | IC100 ([1]; arachidonic acid-induced, human platelet-rich plasma, read-out: concentration giving complete inhibition of arachidonic acid-induced platelet aggregation) [µg/mL] | profile of biological activity compared with sodium prostacyclin obtained by biosynthesis [2] | stability in water at acid pH ([3]; water, acid pH) | effect on coronary vessels [4] | minimal effective concentration ([1]; Platelet, fresh reaction mixture of aortic microsomes with PGH2 or PGG2, 1 ml human PRP, read-out: lowest anti-aggregatory concentration) [µg/mL] | effect on platelet aggregation induced by arachidonic acid and PGG2 ([1]; diethyl ether extracts) | anti-aggregatory potency relative to PGD2 ([1]; times more potent than PGD2, on average) | anti-aggregatory potency relative to PGE1 ([1]; times more potent than PGE1, on average) | effect on formation of gastric lesions [5] | lowest dose at which relaxation can be seen [6] [nanograms per 5 ml bath] | vasodepressor potency relative to PGE2 (blood pressure) [times] | effect on strips of coeliac and mesenteric arteries [7] | potency compared with PGE2 on coeliac and mesenteric artery strips [7] | effect on strips of rabbit aorta (strips of rabbit aorta) | anti-aggregatory activity after boiling ([3]; boiling, 15 seconds, extracted Prostacyclin) | time for which anti-aggregatory activity is preserved on storage ([3]; dissolved in dry acetone (b5: or aqueous alkali), stored at -20° C.) | half-life ([3]; room temperature, aqueous medium) [min] | anti-aggregatory activity after standing ([3]; standing at 22° C. for 20 minutes, extracted Prostacyclin) |
| --- | --- | --- | --- | --- | --- | --- | --- | --- | --- | --- | --- | --- | --- | --- | --- | --- | --- | --- |
| CCCCC[C@H](O)/C=C/[C@@H]1[C@H]2C/C(=C/CCCC(=O)O)O[C@H]2C[C@H]1O [sodium prostacyclin, sodium (5Z)-5,6-didehydro-9-deoxy-6,9α-epoxyprostaglandin F1α] | 0.001 | conformed | instability |  |  |  |  |  |  |  |  |  |  |  |  |  |  |  |
| CCCCC[C@H](O)/C=C/[C@@H]1[C@H]2C/C(=C/CCCC(=O)O)O[C@H]2C[C@H]1O [Prostacyclin, (5Z)-5,6-didehydro-9-deoxy-6,9α-epoxyprostaglandin F1α] |  |  |  | produced coronary vasodilation | 0.0005 to 0.005 | inhibited | 5-20 times | 10-40 times | inhibit the formation of gastric lesions | 20 | 5 | relaxed | less potent than PGE2 | does not contract | disappeared | several days | ~10 | disappeared |
